Assay results: patent publication US8580965B2, “Substituted sulfonamide compounds” (Gruenenthal GmbH, priority 2006, dated 2013)
Structures can show the parent of a compound that is named as a salt.

Experiments:
[1] = target: T1, B1R receptor of the rat (bradykinin 1 receptor) (Rattus norvegicus, UniProt P97583); assay: FLIPR Ca2+ assay (Fluo-4) on CHO K1 cells stably transfected with the B1R gene of the rat; % activation and % inhibition at 10 μM; assay type: cell-based; conditions: CHO-K1, test substance 10 μM; CHO K1 rB1R cells; Ca2+ inflow after 100 nM Des-Arg9-bradykinin; read-out: B1R antagonism, rat [10 μM] % inhibition
T1 construct: host or cells: CHO K1 cells (rB1R cells)
T1 sequence (P97583 1-337): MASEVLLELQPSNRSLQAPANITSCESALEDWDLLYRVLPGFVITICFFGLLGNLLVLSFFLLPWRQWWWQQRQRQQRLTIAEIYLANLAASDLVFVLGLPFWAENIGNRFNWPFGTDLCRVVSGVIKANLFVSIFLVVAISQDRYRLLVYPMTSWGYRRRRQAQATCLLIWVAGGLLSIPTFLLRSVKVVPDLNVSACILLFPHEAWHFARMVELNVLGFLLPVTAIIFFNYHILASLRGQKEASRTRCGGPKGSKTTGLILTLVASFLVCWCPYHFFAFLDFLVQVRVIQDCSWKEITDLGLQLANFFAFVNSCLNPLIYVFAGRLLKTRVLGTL
Summary of the method: (§1)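 CHO K1 cells stably expressing human or rat B1R, Fluo-4 loaded, read by FLIPR (peak fluorescence). Compound at 10 µM first gives % activation versus agonist; after 10 min, agonist (human: 0.5 nM Lys-Des-Arg9-bradykinin; rat: 100 nM Des-Arg9-bradykinin) gives % inhibition relative to maximal inhibition.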

[2] = target: T2, human B1R receptor (bradykinin 1 receptor) (Homo sapiens, UniProt P46663); assay: FLIPR Ca2+ assay (Fluo-4) on CHO K1 cells stably transfected with the human B1R gene; % activation and % inhibition at 10 μM; assay type: cell-based; conditions: CHO-K1, test substance 10 μM; CHO K1 hB1R cells; Ca2+ inflow after 0.5 nM Lys-Des-Arg9-bradykinin; read-out: B1R antagonism, human [10 μM] % inhibition
T2 construct: host or cells: CHO K1 cells (hB1R cells)
T2 sequence (P46663 1-353): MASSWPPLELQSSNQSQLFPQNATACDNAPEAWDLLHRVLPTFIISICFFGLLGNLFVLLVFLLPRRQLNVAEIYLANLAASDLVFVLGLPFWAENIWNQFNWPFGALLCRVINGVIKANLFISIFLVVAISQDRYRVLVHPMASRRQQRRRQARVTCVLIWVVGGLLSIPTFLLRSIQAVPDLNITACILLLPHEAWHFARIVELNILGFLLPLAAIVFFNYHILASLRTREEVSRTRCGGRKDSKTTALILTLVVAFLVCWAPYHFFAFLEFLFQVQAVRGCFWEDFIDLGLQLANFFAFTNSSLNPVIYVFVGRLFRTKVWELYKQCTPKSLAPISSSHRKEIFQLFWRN
Summary of the method: as §1

Row | inhibition at 10 µM [1] [%] | inhibition at 10 µM [2] [%] | Structure (SMILES)
1 | 43.2 | 35.4 | Cc1ccc(F)cc1S(=O)(=O)N(C)CCOCC(=O)N1CCC(O)(c2ccccn2)CC1 [Example 97, 5-fluoro-N-{2-[2-(4′-hydroxy-3′,4′,5′,6′-tetrahydro-2′H-[2,4′]bipyridinyl-1′-yl)-2-oxo-ethoxy]-ethyl}-2,N-dimethyl-phenylsulfonamide]
2 | 31.9 | 29.1 | O=C(COC1CCN(S(=O)(=O)c2c(Cl)cc(Cl)cc2Cl)C1)N1CCC(O)(c2ccccn2)CC1 (stereo not drawn) [Example 98, 1-(4′-hydroxy-3′,4′,5′,6′-tetrahydro-2′H-[2,4′]bipyridinyl-1′-yl)-2-[1-(2,4,6-trichloro-phenylsulfonyl)-pyrrolidin-3-yloxy]-ethanone]
3 | -0.67 | -6.26 | O=C(COCC1Cc2ccccc2N1S(=O)(=O)c1ccc(Cl)c(Cl)c1)N1CCC(O)(c2cccnc2)CC1 (stereo not drawn) [Example 100, 2-[1-(3,4-dichloro-phenylsulfonyl)-2,3-dihydro-1H-indol-2-ylmethoxy]-1-(4′-hydroxy-3′,4′,5′,6′-tetrahydro-2′H-[3,4′]bipyridinyl-1′-yl)-ethanone]
4 | 54.5 | 54.8 | O=C(COC1CCN(S(=O)(=O)c2c(Cl)cc(Cl)cc2Cl)C1)N1CCC(O)(c2ccccc2)CC1 (stereo not drawn) [Example 108, 1-(4-hydroxy-4-phenylpiperidin-1-yl)-2-(1-(2,4,6-trichlorophenylsulfonyl)pyrrolidin-3-yloxy)ethanone]
5 | 82.5 | 103 | O=C(COC1CCN(S(=O)(=O)c2c(Cl)cc(Cl)cc2Cl)C1)N1CCC(O)(Cc2ccccc2)CC1 (stereo not drawn) [Example 109, 1-(4-benzyl-4-hydroxy-piperidin-1-yl)-2-[1-(2,4,6-trichloro-phenylsulfonyl)-pyrrolidin-3-yloxy]-ethanone]
6 | 101 | 106 | COc1cc(C)c(S(=O)(=O)N2CCCCC2CCC(=O)N2CCC(O)(c3cccnc3)CC2)c(C)c1 (stereo not drawn) [Example 112, 1-(4-hydroxy-4-(pyridin-3-yl)piperidin-1-yl)-3-(1-(4-methoxy-2,6-dimethylphenylsulfonyl)piperidin-2-yl)propan-1-one]
7 | 51.1 | 94.8 | Cc1cc(S(=O)(=O)N(C)CCCC(=O)N2CCC(O)(c3cccnc3)CC2)c(C)cc1Cl [Example 113, 4-chloro-N-(4-(4-hydroxy-4-(pyridin-3-yl)piperidin-1-yl)-4-oxobutyl)-N,2,5-trimethylphenylsulfonamide hydrochloride]
8 | 44.3 | 55.2 | CN(CCCC(=O)N1CCC(O)(c2cccnc2)CC1)S(=O)(=O)c1ccc2ccccc2c1 [Example 115, N-(4-(4-hydroxy-4-(pyridin-3-yl)piperidin-1-yl)-4-oxobutyl)-N-methylnaphthalene-2-sulfonamide]
9 | 24.2 | 84.8 | O=C(CCC1CCCCN1S(=O)(=O)c1ccc2ccccc2c1)N1CCC(O)(c2cccnc2)CC1 (stereo not drawn) [Example 117, 1-(4-hydroxy-4-(pyridin-3-yl)piperidin-1-yl)-3-(1-(naphthalen-2-ylsulfonyl)piperidin-2-yl)propan-1-one]
10 | 22.4 | 82.6 | Cc1cc(S(=O)(=O)N2CCCCC2CCC(=O)N2CCC(O)(c3ccccn3)CC2)c(C)cc1Cl (stereo not drawn) [Example 119, 3-(1-(4-chloro-2,5-dimethylphenylsulfonyl)piperidin-2-yl)-1-(4-hydroxy-4-(pyridin-2-yl)piperidin-1-yl)propan-1-one]

Continued, molecule first:

Row | Structure (SMILES) | inhibition at 10 µM [1] [%] | inhibition at 10 µM [2] [%]
11 | Cc1cc(C)c(S(=O)(=O)N2CCCCC2COCC(=O)N2CCC(O)(c3ccccn3)CC2)c(C)c1 (stereo not drawn) [Example 94, 1-(4′-hydroxy-3′,4′,5′,6′-tetrahydro-2′H-[2,4′]bipyridinyl-1′-yl)-2-[1-(2,4,6-trimethyl-phenylsulfonyl)-piperidin-2-ylmethoxy]-ethanone] | 103 | 104
12 | O=C(COC1CCCCC1N(Cc1ccccc1)S(=O)(=O)c1ccc(Cl)c(Cl)c1)N1CCC(O)(c2ccccn2)CC1 (stereo not drawn) [Example 95, N-benzyl-3,4-dichloro-N-{2-[2-(4′-hydroxy-3′,4′,5′,6′-tetrahydro-2′H-[2,4′]bipyridinyl-1′-yl)-2-oxo-ethoxy]-cyclohexyl}-phenylsulfonamide] | -0.33 | 8.92
13 | O=C(COCC1CCCCN1S(=O)(=O)c1cccc(C(F)(F)F)c1)N1CCC(O)(c2ccccn2)CC1 (stereo not drawn) [Example 96, 1-(4′-hydroxy-3′,4′,5′,6′-tetrahydro-2′H-[2,4′]bipyridinyl-1′-yl)-2-[1-(3-trifluoromethyl-phenylsulfonyl)-piperidin-2-ylmethoxy]-ethanone] | 46.2 | 50.5
14 | O=C(COCC1Cc2ccccc2N1S(=O)(=O)c1ccc(Cl)c(Cl)c1)N1CCC(O)(Cc2ccccc2)CC1 (stereo not drawn) [Example 99, 1-(4-benzyl-4-hydroxy-piperidin-1-yl)-2-[1-(3,4-dichloro-phenylsulfonyl)-2,3-dihydro-1H-indol-2-ylmethoxy]-ethanone] | -12.4 | -22.9
15 | Cc1cc(C)c(S(=O)(=O)N2Cc3ccccc3CC2COCC(=O)N2CCC(O)(c3ccccc3)CC2)c(C)c1 (stereo not drawn) [Example 101, 1-(4-hydroxy-4-phenylpiperidin-1-yl)-2-((2-(mesitylsulfonyl)-1,2,3,4-tetrahydroisoquinolin-3-yl)methoxy)ethanone] | 85.4 | 102
16 | CN(CCOCC(=O)N1CCC(O)(c2cccnc2)CC1)S(=O)(=O)c1ccc(Cl)s1 [Example 102, 5-chloro-thiophene-2-sulfonic acid {2-[2-(4′-hydroxy-3′,4′,5′,6′-tetrahydro-2′H-[3,4′]bipyridinyl-1′-yl)-2-oxo-ethoxy]-ethyl}-methyl-amide] | 16.1 | 14.2
17 | CN(CCOCC(=O)N1CCC(O)(c2ccccn2)CC1)S(=O)(=O)c1ccc(Cl)s1 [Example 103, 5-chloro-thiophene-2-sulfonic acid {2-[2-(4′-hydroxy-3′,4′,5′,6′-tetrahydro-2′H-[2,4′]bipyridinyl-1′-yl)-2-oxo-ethoxy]-ethyl}-methyl-amide] | 19.3 | -9.25
18 | Cc1cc(Cl)cc(Cl)c1S(=O)(=O)N(C)CCOCC(=O)N1CCC(O)(c2ccc(Cl)cc2)CC1 [Example 104, 2,4-dichloro-N-(2-(2-(4-(4-chlorophenyl)-4-hydroxypiperidin-1-yl)-2-oxoethoxy)ethyl)-N,6-dimethylphenylsulfonamide] | 95.8 | 99.7
19 | Cc1cc(Cl)cc(Cl)c1S(=O)(=O)N(C)CCOCC(=O)N1CCC(O)(c2ccccc2)CC1 [Example 105, 2,4-dichloro-N-(2-(2-(4-hydroxy-4-phenylpiperidin-1-yl)-2-oxoethoxy)ethyl)-N,6-dimethylphenylsulfonamide] | 96.1 | 98.6
20 | Cc1cc(Cl)cc(Cl)c1S(=O)(=O)N(C)CCOCC(=O)N1CCC(O)(Cc2ccccc2)CC1 [Example 106, N-{2-[2-(4-benzyl-4-hydroxy-piperidin-1-yl)-2-oxo-ethoxy]-ethyl}-2,4-dichloro-6,N-dimethyl-phenylsulfonamide] | 96.1 | 97.8
21 | O=C(COC1CCN(S(=O)(=O)c2c(Cl)cc(Cl)cc2Cl)C1)N1CCC(O)(c2ccc(Cl)cc2)CC1 (stereo not drawn) [Example 107, 1-(4-(4-chlorophenyl)-4-hydroxypiperidin-1-yl)-2-(1-(2,4,6-trichlorophenylsulfonyl)pyrrolidin-3-yloxy)ethanone] | 71.9 | 75.5
22 | Cc1cc(S(=O)(=O)N2CCCCC2CCC(=O)N2CCC(O)(c3cccnc3)CC2)c(C)cc1Cl (stereo not drawn) [Example 111, 3-(1-(4-chloro-2,5-dimethylphenylsulfonyl)piperidin-2-yl)-1-(4-hydroxy-4-(pyridin-3-yl)piperidin-1-yl)propan-1-one hydrochloride] | 85.9 | 97.8
23 | O=C(CCC1CCCCN1S(=O)(=O)c1ccc(Cl)cc1Cl)N1CCC(O)(c2cccnc2)CC1 (stereo not drawn) [Example 118, 3-(1-(2,4-dichlorophenylsulfonyl)piperidin-2-yl)-1-(4-hydroxy-4-(pyridin-3-yl)piperidin-1-yl)propan-1-one] | 97.9 | 101
24 | Cc1cc(S(=O)(=O)N2CCCCC2CCC(=O)N2CCC(O)(c3cccc(F)c3)CC2)c(C)cc1Cl (stereo not drawn) [Example 120, 3-(1-(4-chloro-2,5-dimethylphenylsulfonyl)piperidin-2-yl)-1-(4-(3-fluorophenyl)-4-hydroxypiperidin-1-yl)propan-1-one] | 45.9 | 58.4
